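Values below derive from 48-hour exposures of cells grown in 96-well plates, with endpoints linearly interpolated between the two concentrations bracketing the appropriate inhibition level. At the GI50, growth is halved.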 Active and inactive are the calls of the source. Cut-off read from the data, not from the text of the source: active = GI50 up to about 1.1 µM and inactive = higher. Starred links: 1 amine or outer side, 2 acyl side, 3 side chain; linkers in the order of their positions; H or OH if unused. Non-standard residues stand in square brackets, D forms with d. Residues, ends and D or L forms follow the SMILES beside them. ξ: configuration not given here. X24 = O=C(C(CC(O)CO)O[*:1])[*:2]; Ile(3ξ) = CCC(C)[C@H](N)C(=O)O; NMeV = CN[C@H](C(=O)O)C(C)C; NMeA = CN[C@@H](C)C(=O)O; βAla = NCCC(=O)O
How the values were obtained:
Experiment in all cases: NCI anticancer screen, dose series, 48 h
DLD-1 = system: DLD-1
DMS-114 = system: DMS-114
DMS-273 = system: DMS-273
HOP-18 = system: HOP-18
KM-20L2 = system: KM-20L2
LXFL 529 = system: LXFL 529
M19-MEL = system: M19-MEL
XF498 = system: XF498
RXF 631 = system: RXF 631

Measured: GI50

C=C1c2ccccc2N(S(=O)(=O)c2ccc(C)cc2)C12CCCCC2
inactive: DLD-1 > 100 µM | DMS-114 18.9 µM | DMS-273 45 µM | HOP-18 > 100 µM | KM-20L2 > 100 µM | LXFL 529 37.2 µM | M19-MEL 47.1 µM | XF498 > 100 µM

Cc1cc(Cl)ccc1NC(=O)C1C(=O)C(=O)N(c2ccc(Cl)cc2C)C1=O (stereo unspecified)
inactive: DLD-1 > 100 µM | DMS-114 25.1 µM | DMS-273 > 100 µM | KM-20L2 48.3 µM | LXFL 529 48.3 µM | M19-MEL > 100 µM | RXF 631 68.2 µM

CCC(C)[C@@H]1NC(=O)[C@@H]2CCCN2C(=O)C(CC(O)CO)OC(=O)CCNC(=O)[C@H](C)N(C)C(=O)[C@H](C(C)C)N(C)C1=O (stereo partly specified) (cyclo([Ile(3ξ)][NMeV][NMeA][βAla][X24]P))
inactive: DLD-1 > 100 µM | DMS-273 > 100 µM | KM-20L2 > 100 µM | LXFL 529 44.6 µM | M19-MEL > 100 µM | RXF 631 > 100 µM | XF498 > 100 µM

COc1cc(C)c(C(=O)/C=C/c2cc(OC)c(O)c(OC)c2)cc1O
inactive: DLD-1 15.3 µM | DMS-114 20.5 µM | DMS-273 15.5 µM | KM-20L2 26.5 µM | LXFL 529 20.4 µM | M19-MEL 19.3 µM | RXF 631 20.8 µM | XF498 15.7 µM

N#C/C(=N\c1ccccc1N(C(=O)c1ccccc1)C(=O)c1ccccc1)c1ccccc1
inactive: DLD-1 > 42 µM | DMS-114 4.63 µM | DMS-273 3.83 µM | HOP-18 > 40.4 µM | KM-20L2 9.71 µM | LXFL 529 41 µM | M19-MEL > 100 µM | XF498 7.8 µM

Cc1cc(Cl)cc2c1NC(=O)C2(O)C(C)C(=O)c1ccc(Cl)cc1 (stereo unspecified)
inactive: DLD-1 > 61.2 µM | DMS-114 37.3 µM | DMS-273 > 83.2 µM | HOP-18 > 92.9 µM | KM-20L2 > 100 µM | LXFL 529 > 66.5 µM | M19-MEL 12.8 µM | XF498 42.6 µM

O=C(O)c1c2c(cc3c(=O)cc(-c4ccccc4)oc13)CCCC2
inactive: DLD-1 > 100 µM | DMS-273 > 100 µM | KM-20L2 > 100 µM | LXFL 529 > 100 µM | RXF 631 > 100 µM | XF498 > 100 µM

COc1cc2c3c(c1OC)-c1ccccc1C(C(O)c1ccccc1)C3N(C)CC2 (stereo unspecified)
inactive: DLD-1 26.4 µM | DMS-114 17.6 µM | DMS-273 25.5 µM | HOP-18 82.8 µM | KM-20L2 20.1 µM | LXFL 529 29.6 µM | M19-MEL 27.8 µM | RXF 631 22.2 µM | XF498 19.1 µM

O=C(/C=C\c1cccc2ccccc12)c1cccs1
inactive: DLD-1 3.77 µM | DMS-114 4.3 µM | DMS-273 5.26 µM | HOP-18 10.2 µM | KM-20L2 10.7 µM | LXFL 529 10.9 µM | M19-MEL 8.3 µM

COc1ccc(-c2cc(C(=O)Nc3cccc(C(F)(F)F)c3)nc(S)n2)cc1
inactive: DLD-1 > 100 µM | DMS-114 > 100 µM | DMS-273 > 100 µM | HOP-18 > 100 µM | KM-20L2 > 100 µM | LXFL 529 > 100 µM | M19-MEL > 100 µM | XF498 > 100 µM

O=C(O)c1cc2ccc(Cl)cc2c(O)c1C1=CCCCC1
inactive: DLD-1 41.7 µM | DMS-114 24.8 µM | DMS-273 20 µM | HOP-18 60.5 µM | KM-20L2 51.6 µM | LXFL 529 35.3 µM | M19-MEL 35.8 µM | RXF 631 32.1 µM | XF498 18.7 µM

COc1cc(C2C(C(=O)O)=C(COC(C)=O)Oc3cc4c(cc32)OCO4)cc(OC)c1OC(C)=O (stereo unspecified)
inactive: DLD-1 > 100 µM | DMS-114 > 100 µM | DMS-273 > 100 µM | HOP-18 > 100 µM | KM-20L2 > 100 µM | M19-MEL > 100 µM | RXF 631 > 100 µM | XF498 > 100 µM

CC(=O)O[C@H]1CC[C@@]2(C)C(=CC[C@@H]3C2CC[C@]2(C)Nc4c(cnn4-c4ccccc4)CC32)C1 (stereo partly specified)
inactive: DLD-1 21.4 µM | DMS-114 37.1 µM | DMS-273 4.24 µM | KM-20L2 3.78 µM | LXFL 529 17.9 µM | M19-MEL 34.2 µM | XF498 25.7 µM

N#CC(C#N)=Cc1ccc(C(O)P(=O)(O)O)cc1 (stereo unspecified)
inactive: DLD-1 > 100 µM | DMS-114 > 100 µM | DMS-273 > 100 µM | HOP-18 > 100 µM | KM-20L2 > 100 µM | LXFL 529 > 100 µM | M19-MEL > 100 µM | RXF 631 > 100 µM | XF498 > 100 µM

CN(C)CCc1ccc(Cl)cc1Cl
inactive: DLD-1 > 100 µM | DMS-114 > 100 µM | HOP-18 > 100 µM | KM-20L2 > 100 µM | LXFL 529 > 100 µM | M19-MEL > 100 µM | RXF 631 > 100 µM | XF498 > 100 µM

CCCCCCCCOCC(O)COC(C)C (stereo unspecified)
inactive: DLD-1 89.7 µM | DMS-273 16.7 µM | HOP-18 > 100 µM | KM-20L2 85.1 µM | LXFL 529 93.8 µM | M19-MEL 45.5 µM

CCCCCCCC(=O)OCC(COC(=O)C(C)(C)C)OC(=O)Cc1ccccc1 (stereo unspecified)
inactive: DLD-1 > 100 µM | DMS-114 > 100 µM | DMS-273 > 100 µM | HOP-18 > 100 µM | KM-20L2 > 100 µM | LXFL 529 > 100 µM | M19-MEL > 100 µM

O=C(O)COc1ccc(O)c2c1C(=O)CCCC2=O
inactive: DLD-1 > 100 µM | DMS-114 > 100 µM | DMS-273 > 100 µM | KM-20L2 > 100 µM | LXFL 529 > 100 µM | M19-MEL > 100 µM | RXF 631 > 100 µM | XF498 > 100 µM

CCOc1ccc2c(c1)[n+]([O-])c(-c1ccccc1Cl)c(N)[n+]2[O-]
inactive: DLD-1 > 100 µM | DMS-114 > 100 µM | DMS-273 > 100 µM | HOP-18 > 100 µM | KM-20L2 > 100 µM | LXFL 529 > 100 µM | M19-MEL > 100 µM | RXF 631 > 100 µM | XF498 > 100 µM

C=CCOC1CC(n2cnc3c(N)ncnc32)OC1CO (stereo unspecified)
inactive: DLD-1 > 100 µM | DMS-114 > 100 µM | DMS-273 > 100 µM | KM-20L2 > 100 µM | LXFL 529 > 100 µM | M19-MEL > 100 µM | XF498 > 100 µM

O=C1NC2C=CN(Cc3ccccc3)C=C2C(=O)N2CCCC12 (stereo unspecified)
inactive: DLD-1 > 100 µM | DMS-114 > 100 µM | DMS-273 > 100 µM | HOP-18 > 100 µM | KM-20L2 > 100 µM | LXFL 529 > 100 µM | M19-MEL > 100 µM | RXF 631 > 100 µM | XF498 > 100 µM

COc1c2c(c3c(c1C1OC(C)[C@@H](C)O1)CC(C)(C)O3)C(=O)c1ccccc1C2=O (stereo partly specified)
inactive: DLD-1 36.1 µM | DMS-114 37.4 µM | DMS-273 24.2 µM | KM-20L2 29.2 µM | LXFL 529 23.1 µM | M19-MEL 36.7 µM | RXF 631 9.91 µM | XF498 41 µM

— ChEMBL document CHEMBL1201862, “PubChem BioAssay data set” (2004)
